The values below come from publication PMC11514314, “The aquastatin biosynthetic gene cluster encodes a versatile polyketide synthase capable of synthesising heteromeric depsides with diverse alkyl side chains” (Chemical Science, 2024).

In brackets after ≈: the same amount, converted by molar mass.

The subject of assay [1] is methicillin-resistant S. aureus (MRSA). Also on record: method as in PMID 19952429. As to conditions: cited from earlier work.
The subject of assay [2] is B. subtilis (ATCC 6633). The assay is described as follows: Antibacterial ProTOX bioassay, B. subtilis. The format is cell-based. The following applies: Bacillus subtilis, ATCC6633; B. subtilis ATCC 6633, 48 h, 28 °C; read-out: Minimum inhibitory concentration (MIC) B. subtilis. The protocol: (§1) 12. Bioactivity screening.
(§2) Purified metabolites were dissolved in DMSO to create stock solutions of 10,000 µg/mL. An aliquot from each stock solution was transferred to the first well of Rows B to G on a 96-well microtitre plate and then serially diluted two-fold with DMSO across the 12 wells of the plate to achieve a 2,048-fold concentration gradient. Bioassay medium was added to an aliquot of each diluted solution to achieve a 100-fold dilution in the final bioassay. This […]
(§3) 0.1 µg/mL in 2% DMSO for yeasts. Row A served as a control with no test compound (indicating no inhibition), and Row H was left uninoculated (serving as a control for complete inhibition).
(§4) B. subtilis (ATCC 6633), S. aureus (ATCC 25923) and MRSA (ATCC 33592) were used as indicator species for antibacterial activity, employing the ProTOX bioassay platform. A bacterial suspension (50 mL in a 250 mL flask) was prepared in nutrient media by cultivating it for 24 h at 250 rpm and 28 °C. The suspension was diluted to an absorbance of 0.01 absorbance units per mL, and 10 µL aliquots were added to the wells of a 96-well microtitre plate containing the test compounds dispersed in 190 µL of nutrient broth (Amyl) with 10 µL resazurin (12.5 µg/mL). The plates were incubated at 28 °C for 48 h, during which the positive control wells changed colour from blue to light pink. Tetracycline was employed as a control for B. subtilis, while ampicillin was used for S. aureus and MRSA. MIC endpoints were determined visually. Absorbance was measured using a Multiskan Skyhigh Microplate Spectrophotometer (Thermo Fisher Scientific) at 605 nm.

The subject of assay [3] is MRSA (ATCC 33592). The assay can be described thus: Antibacterial ProTOX bioassay, MRSA. The class given is cell-based, methicillin-resistant S. aureus. As to conditions: Staphylococcus aureus; MRSA ATCC 33592, 48 h, 28 °C; read-out: Minimum inhibitory concentration (MIC) MRSA. As for the experimental part:
as §1, §2, §3, §4

A further assay deals with HIV-1 integrase. Also on record: method as in PMID 19952429, PMID 15015729. The following applies: cited from earlier work.
Assay [4] concerns NS-1 (ATCC TIB-18) mouse myeloma cells. The assay is described as follows: Cytotoxicity resazurin assay, NS-1 cells. The format is cell-based. As to conditions: NS1; mouse myeloma NS-1 ATCC TIB-18, 96 h; read-out: IC50 NS-1. As for the experimental part:
as §1, §2
(§5) 0.1 µg/mL in 2% DMSO for yeasts. Row A served as a control with no test compound (indicating no inhibition), and Row H was left uninoculated (serving as a control for complete inhibition). […]
(§6) MIC endpoints were determined visually. Absorbance was measured using a Multiskan Skyhigh […]
as §6
(§7) NS-1 (ATCC TIB-18) mouse myeloma and NFF (ATCC PCS -201) human neonatal foreskin fibroblast cells were each inoculated in 96-well microtitre plates (190 µL) at 50,000 cells/mL in DMEM (Dulbecco's Modified Eagle Medium + 10% fetal bovine serum (FBS) + 1% penicillin/streptomycin (10,000 U/mL / 10,000 µg/mL, Life Technologies Cat. No. 15140122), together with resazurin (250 µg/mL; 10 µL) and incubated in 37 °C (5% CO2) incubator. The plates were incubated for 96 h during which time the positive control wells change colour from a blue to pink colour. The absorbance of each well was measured using Multiskan Skyhigh Microplate Spectrophotometer (Thermofisher Scientific) at 605 nm. Sparsomycin was used as a control. The IC50 values were determined using a sigmoidal dose-response model with variable slope in GraphPad Prism 8.
On the technique in general: Resazurin is reduced to fluorescent resorufin, in cell work by metabolically active cells.

Assay [5] relates to NFF (ATCC PCS-201) human neonatal foreskin fibroblast cells. The assay is described as follows: Cytotoxicity resazurin assay, NFF cells. The class given is cell-based. The following applies: Homo sapiens; neonatal foreskin fibroblast NFF, 96 h; read-out: IC50 NFF. The protocol: as §1, §2, §5, §6, §6, §7
The test system of assay [6] is Saccharomyces cerevisiae (ATCC 9763). The assay is described as follows: Antifungal EuTOX bioassay, S. cerevisiae. The class given is cell-based. The following applies: Saccharomyces cerevisiae, ATCC9763; S. cerevisiae ATCC 9763, 48 h; read-out: Minimum inhibitory concentration (MIC) S. cerevisiae. The protocol: as §1, §2, §5, §6
Saccharomyces cerevisiae (ATCC 9763) was used as indicator species for antifungal activity, employing the EuTOX bioassay platform. A yeast suspension (50 mL in a 250 mL flask) was prepared in 1% malt extract broth by cultivating it for 24 h at 250 rpm and 24 °C. The suspension was diluted to absorbances of 0.03 absorbance units per mL and 30 µL were added to the wells of a 96-well microtitre plate containing the test compounds dispersed in 100 µL of malt extract agar with bromocresol green (50 µg/mL). The plates were incubated at 28 °C for 48 h, during which the positive control wells changed colour from blue to yellow. Blasticidin S HCl was used

Assay [7] has as its system fatty acid synthase II (FAS II). The following applies: cited from earlier work.
Assay [8] has as its system S. aureus (ATCC 25923). The assay can be described thus: Antibacterial ProTOX bioassay, S. aureus. The format is cell-based. The following applies: Staphylococcus aureus, ATCC25923; S. aureus ATCC 25923, 48 h, 28 °C; read-out: Minimum inhibitory concentration (MIC) S. aureus. The protocol: as §1, §2, §3, §4
Assay [9] relates to mammalian adenosine triphosphatases. Also on record: method as in PMID 8270486. The following applies: cited from earlier work.
Assay [10] relates to NFF (ATCC PCS-201) human neonatal foreskin fibroblast cells. Also on record: method as in Crombie et al.[17]. As to conditions: ref Crombie et al.[17]; cited from earlier work.
Assay [11] has as its system NS-1 (ATCC TIB-18) mouse myeloma cells. Further details: method as in Crombie et al.[17]. As to conditions: mouse myeloma NS-1; ref Crombie et al.[17]; cited from earlier work.
Assay [12] concerns Saccharomyces cerevisiae (ATCC 9763). As to conditions: S. cerevisiae ATCC 9763; ref Crombie et al.[17]; cited from earlier work.
In assay [13] the test system is MRSA (ATCC 33592). Also on record: method as in Crombie et al.[17]. As to conditions: ref Crombie et al.[17]; cited from earlier work.
In assay [14] the test system is B. subtilis (ATCC 6633). Further details: method as in Crombie et al.[17]. As to conditions: ref Crombie et al.[17]; cited from earlier work.
Assay [15] concerns S. aureus (ATCC 25923). Also on record: method as in Crombie et al.[17]. The following applies: ref Crombie et al.[17]; cited from earlier work.

One may read the IC50 as the midpoint of a concentration-inhibition curve. In the case of `CCCCCCCCCCCCCCCc1cc(O[C@@H]2O[C@H](CO)[C@@H](O)[C@H](O)[C@H]2O)cc(O)c1C(=O)Oc1cc(C)c(C(=O)O)c(O)c1` [1a, Aquastatin A], in assay [1], the “antibacterial activity against MRSA” value was “demonstrated antibacterial activity”. Further, the MIC in the assay on B. subtilis (ATCC 6633) [2] was 1.6 µg/mL (≈ 2.36 µM); in the assay with MRSA (ATCC 33592) [3], 1.6 µg/mL (≈ 2.36 µM); in [6] it was greater than 200 µg/mL; with S. aureus (ATCC 25923) [8] it was 12.5 µg/mL (≈ 18.5 µM). Moreover, the “inhibition of HIV-1 integrase” value in the assay with HIV-1 integrase was “inhibit”. Besides, the half-inhibitory concentration (IC50) in [4] and in assay [5] was greater than 100 µg/mL in each case. Moreover, in assay [7], the “inhibition of fatty acid synthase II (FAS II)” value is recorded as “inhibit”. The “inhibition of mammalian adenosine triphosphatases” value in assay [9] was “inhibitor”.

As to `CCCCCCCCCCCCCCCc1cc(O)cc(O)c1C(=O)Oc1cc(C)c(C(=O)O)c(O)c1` [1b, Aquastatin B], the “antibacterial activity against MRSA” value in assay [1] is reported as “demonstrated antibacterial activity”. In addition, the MIC in the assay with B. subtilis (ATCC 6633) [2] is 1.6 µg/mL (≈ 3.11 µM); with MRSA (ATCC 33592) [3] it was greater than 50 µg/mL; in assay [6], greater than 200 µg/mL; in the assay on S. aureus (ATCC 25923) [8], greater than 100 µg/mL. Also, the 50% inhibitory concentration (IC50) in assay [4] is greater than 50 µg/mL; in assay [5], greater than 100 µg/mL. Further, in [7], the “FAS II inhibitory activity” value is listed as “do not demonstrate”.

As to `CCCCCCCCCCCCCCCc1cc(O[C@@H]2O[C@H](CO)[C@H](O)[C@H](O)[C@H]2O)cc(O)c1C(=O)OC` [1c, aquastatin C], the MIC was greater than 100 µg/mL with B. subtilis (ATCC 6633) [2], greater than 100 µg/mL in the assay with MRSA (ATCC 33592) [3], greater than 200 µg/mL in [6] and greater than 100 µg/mL in the assay on S. aureus (ATCC 25923) [8]. Further, the half-inhibitory concentration (IC50) in assay [4] and in assay [5] was greater than 100 µg/mL in each case. For the same compound, in assay [7], the “FAS II inhibitory activity” value is “do not demonstrate”.

Take `CCCCC/C=C\C/C=C\CCCCCCCc1cc(O[C@@H]2O[C@H](CO)[C@H](O)[C@H](O)[C@H]2O)cc(O)c1C(=O)Oc1cc(C)c(C(=O)O)c(O)c1` [2a, Geministatin A]: in assay [10], the “IC50 NFF” value is greater than 100 µM. For the same compound, the “IC50 NS-1” value in [11] was greater than 50 µM. In addition, the “Minimum inhibitory concentration (MIC) S. cerevisiae” value in assay [12] is greater than 200 µg/mL. Moreover, in the assay with MRSA (ATCC 33592) [13], the “Minimum inhibitory concentration (MIC) MRSA” value is 6.3 µg/mL (≈ 8.99 µM). For the same compound, the “Minimum inhibitory concentration (MIC) B. subtilis” value with B. subtilis (ATCC 6633) [14] is 1.6 µg/mL (≈ 2.28 µM). For the same compound, the “Minimum inhibitory concentration (MIC) S. aureus” value in the assay on S. aureus (ATCC 25923) [15] was 6.3 µg/mL (≈ 8.99 µM).

Take `CCCCC/C=C\C/C=C\CCCCCCCc1cc(O)cc(O)c1C(=O)Oc1cc(C)c(C(=O)O)c(O)c1` [2b, Geministatin B]: in assay [10], the “IC50 NFF” value is greater than 100 µM. Further, the “IC50 NS-1” value in assay [11] was greater than 50 µM. The “Minimum inhibitory concentration (MIC) S. cerevisiae” value in assay [12] is greater than 200 µg/mL. Further, in the assay with MRSA (ATCC 33592) [13], the “Minimum inhibitory concentration (MIC) MRSA” value was 1.6 µg/mL (≈ 2.97 µM). Besides, the “Minimum inhibitory concentration (MIC) B. subtilis” value in the assay on B. subtilis (ATCC 6633) [14] was 0.4 µg/mL (≈ 0.743 µM). In the assay on S. aureus (ATCC 25923) [15], the “Minimum inhibitory concentration (MIC) S. aureus” value is 3.1 µg/mL (≈ 5.75 µM).
